# Values quoted from earlier work, collected in US5395974A, “Lewis acid catalyzed ammonolysis of nylon” (E. I. Du Pont de Nemours and Company, priority 1994, dated 1995).
# Settings: values in square brackets in the text
smiles,measurement,value
O=C(O)C(F)(F)F [CF3 CO2 --],pKa of the conjugate acid of the anion,0.2
